In publication PMC5053573, “Structure-Based Design of Tetrahydroisoquinoline-7-carboxamides as Selective Discoidin Domain Receptor 1 (DDR1) Inhibitors” (Journal of Medicinal Chemistry, 2016):

Legend:
Test in all cases: biochemical
Settings in all cases: read-out: %Ctrl @ 1000nM
[1] = biological target: ABL1(F317I)-phosphorylated (Homo sapiens, UniProt P00519, F317I)
[2] = biological target: ABL1(F317L)-phosphorylated (Homo sapiens, UniProt P00519, F317L)
[3] = biological target: ABL1(Q252H)-phosphorylated (Homo sapiens, UniProt P00519, Q252H)
[4] = biological target: ABL1(T315I)-nonphosphorylated (Homo sapiens, UniProt P00519, T315I)
BMPR1A = BMPR1A (Homo sapiens, UniProt P36894)
CSNK2A1 = CSNK2A1 (Homo sapiens, UniProt P68400)
CSNK2A2 = CSNK2A2 (Homo sapiens, UniProt P19784)
DLK = biological target: T1, DLK (Homo sapiens, UniProt Q12852)
T1 construct: gene MAP3K12

EGFR(L747-T751del,Sins) = EGFR(L747-T751del,Sins) (Homo sapiens, UniProt P00533, DEL747-750/T751S)
EGFR(L861Q) = EGFR(L861Q) (Homo sapiens, UniProt P00533, L861Q)
EPHB1 = EPHB1 (Homo sapiens, UniProt P54762)
ERBB4 = ERBB4 (Homo sapiens, UniProt Q15303)
FLT3(D835V) = FLT3(D835V) (Homo sapiens, UniProt P36888, D835V)
FLT3(ITD,D835V) = FLT3(ITD,D835V) (Homo sapiens, UniProt P36888, D835V/ITD)
FLT3-autoinhibited = FLT3-autoinhibited (Homo sapiens, UniProt P36888)
FYN = FYN (Homo sapiens, UniProt P06241)
GCN2(Kin.Dom.2,S808G) = biological target: T2, GCN2(Kin.Dom.2,S808G) (Homo sapiens, UniProt Q9P2K8, S808G)
T2 construct: gene EIF2AK4

INSR = INSR (Homo sapiens, UniProt P06213)
MEK3 = biological target: T3, MEK3 (Homo sapiens, UniProt P46734)
T3 construct: gene MAP2K3

MEK4 = biological target: T4, MEK4 (Homo sapiens, UniProt P45985)
T4 construct: gene MAP2K4

MET = MET (Homo sapiens, UniProt P08581)
NEK7 = NEK7 (Homo sapiens, UniProt Q8TDX7)
PDPK1 = PDPK1 (Homo sapiens, UniProt O15530)
PIK3CA(C420R) = PIK3CA(C420R) (Homo sapiens, UniProt P42336, C420R)
PIM2 = PIM2 (Homo sapiens, UniProt Q9P1W9)
PIM3 = PIM3 (Homo sapiens, UniProt Q86V86)
PIP5K2B = biological target: T5, PIP5K2B (Homo sapiens, UniProt P78356)
T5 construct: gene PIP4K2B

PKAC-beta = biological target: T6, PKAC-beta (Homo sapiens, UniProt P22694)
T6 construct: gene PRKACB

RET(V804M) = RET(V804M) (Homo sapiens, UniProt P07949, V804M)
RIOK3 = RIOK3 (Homo sapiens, UniProt O14730)
ROCK1 = ROCK1 (Homo sapiens, UniProt Q13464)
TAK1 = biological target: T7, TAK1 (Homo sapiens, UniProt O43318)
T7 construct: gene MAP3K7

TEC = TEC (Homo sapiens, UniProt P42680)
TGFBR1 = TGFBR1 (Homo sapiens, UniProt P36897)
Chain of TGFBR1 (P36897 whole entry): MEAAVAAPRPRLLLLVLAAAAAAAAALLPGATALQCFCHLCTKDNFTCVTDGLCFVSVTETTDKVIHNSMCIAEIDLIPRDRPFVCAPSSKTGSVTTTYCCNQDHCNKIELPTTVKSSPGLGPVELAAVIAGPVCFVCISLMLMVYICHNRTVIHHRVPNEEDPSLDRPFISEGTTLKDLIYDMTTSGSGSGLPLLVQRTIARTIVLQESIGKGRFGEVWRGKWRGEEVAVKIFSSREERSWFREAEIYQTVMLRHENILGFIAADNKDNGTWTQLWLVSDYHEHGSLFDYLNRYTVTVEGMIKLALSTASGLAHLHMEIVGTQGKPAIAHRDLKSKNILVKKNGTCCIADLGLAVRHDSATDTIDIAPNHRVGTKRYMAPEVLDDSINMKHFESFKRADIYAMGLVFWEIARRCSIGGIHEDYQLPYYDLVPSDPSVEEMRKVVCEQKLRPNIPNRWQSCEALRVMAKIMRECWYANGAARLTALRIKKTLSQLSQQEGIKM

Chain of CSNK2A2 (P19784 whole entry): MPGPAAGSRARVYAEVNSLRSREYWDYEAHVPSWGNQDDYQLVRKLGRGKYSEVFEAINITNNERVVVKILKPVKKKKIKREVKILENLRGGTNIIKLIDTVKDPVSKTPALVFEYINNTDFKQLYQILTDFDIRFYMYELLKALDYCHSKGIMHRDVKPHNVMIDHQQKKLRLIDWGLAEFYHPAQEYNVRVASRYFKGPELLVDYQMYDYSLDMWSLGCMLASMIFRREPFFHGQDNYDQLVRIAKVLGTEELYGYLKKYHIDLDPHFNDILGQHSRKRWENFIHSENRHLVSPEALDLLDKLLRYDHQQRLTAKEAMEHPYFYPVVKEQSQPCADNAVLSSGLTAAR
Chain of EGFR(L861Q) (P00533 whole entry L861Q): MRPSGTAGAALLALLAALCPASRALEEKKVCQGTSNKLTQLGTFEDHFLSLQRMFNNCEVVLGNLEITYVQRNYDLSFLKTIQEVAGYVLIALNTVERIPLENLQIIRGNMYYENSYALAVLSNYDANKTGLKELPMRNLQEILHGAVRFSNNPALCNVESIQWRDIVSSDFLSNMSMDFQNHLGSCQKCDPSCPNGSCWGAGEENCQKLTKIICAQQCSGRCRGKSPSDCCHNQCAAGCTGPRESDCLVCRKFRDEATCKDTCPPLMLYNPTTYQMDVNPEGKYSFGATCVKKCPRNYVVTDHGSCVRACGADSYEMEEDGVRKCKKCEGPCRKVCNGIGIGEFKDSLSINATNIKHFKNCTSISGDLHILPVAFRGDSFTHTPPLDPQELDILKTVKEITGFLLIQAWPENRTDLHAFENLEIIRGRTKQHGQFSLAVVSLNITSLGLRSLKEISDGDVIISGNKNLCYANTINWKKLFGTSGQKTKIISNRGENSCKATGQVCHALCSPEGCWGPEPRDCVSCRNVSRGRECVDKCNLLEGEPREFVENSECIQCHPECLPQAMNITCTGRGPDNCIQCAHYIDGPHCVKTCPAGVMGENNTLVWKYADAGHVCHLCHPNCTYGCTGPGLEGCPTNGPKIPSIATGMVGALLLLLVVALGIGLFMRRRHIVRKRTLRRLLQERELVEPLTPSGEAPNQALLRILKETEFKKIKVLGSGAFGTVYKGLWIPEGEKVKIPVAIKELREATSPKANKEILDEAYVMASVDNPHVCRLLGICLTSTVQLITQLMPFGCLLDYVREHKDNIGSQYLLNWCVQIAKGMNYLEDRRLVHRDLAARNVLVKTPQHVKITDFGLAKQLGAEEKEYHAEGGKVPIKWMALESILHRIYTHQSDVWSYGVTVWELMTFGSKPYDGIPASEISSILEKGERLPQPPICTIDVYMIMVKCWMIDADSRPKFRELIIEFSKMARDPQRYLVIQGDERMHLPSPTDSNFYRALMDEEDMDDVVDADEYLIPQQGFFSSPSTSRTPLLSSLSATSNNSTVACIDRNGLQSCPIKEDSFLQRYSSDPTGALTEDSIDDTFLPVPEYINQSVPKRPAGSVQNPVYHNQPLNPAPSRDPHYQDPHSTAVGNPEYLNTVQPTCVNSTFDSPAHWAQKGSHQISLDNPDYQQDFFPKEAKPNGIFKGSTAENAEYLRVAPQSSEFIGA
T7 sequence (O43318 whole entry): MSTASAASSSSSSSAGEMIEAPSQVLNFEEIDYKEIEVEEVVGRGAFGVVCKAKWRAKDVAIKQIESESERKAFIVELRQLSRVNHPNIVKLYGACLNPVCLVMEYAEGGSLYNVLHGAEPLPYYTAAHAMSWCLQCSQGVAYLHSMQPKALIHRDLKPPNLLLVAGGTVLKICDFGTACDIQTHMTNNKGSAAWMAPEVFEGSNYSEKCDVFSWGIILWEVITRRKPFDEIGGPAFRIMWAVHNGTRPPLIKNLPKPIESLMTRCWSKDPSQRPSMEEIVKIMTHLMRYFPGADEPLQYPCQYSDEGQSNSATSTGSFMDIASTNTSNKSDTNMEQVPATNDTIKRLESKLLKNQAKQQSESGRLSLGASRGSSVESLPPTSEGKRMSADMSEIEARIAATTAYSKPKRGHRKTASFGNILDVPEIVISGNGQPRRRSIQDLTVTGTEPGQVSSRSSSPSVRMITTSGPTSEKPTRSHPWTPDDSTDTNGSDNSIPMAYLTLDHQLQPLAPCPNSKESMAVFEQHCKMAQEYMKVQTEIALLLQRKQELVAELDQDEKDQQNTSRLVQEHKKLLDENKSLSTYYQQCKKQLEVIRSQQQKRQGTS
Chain of CSNK2A1 (P68400 whole entry): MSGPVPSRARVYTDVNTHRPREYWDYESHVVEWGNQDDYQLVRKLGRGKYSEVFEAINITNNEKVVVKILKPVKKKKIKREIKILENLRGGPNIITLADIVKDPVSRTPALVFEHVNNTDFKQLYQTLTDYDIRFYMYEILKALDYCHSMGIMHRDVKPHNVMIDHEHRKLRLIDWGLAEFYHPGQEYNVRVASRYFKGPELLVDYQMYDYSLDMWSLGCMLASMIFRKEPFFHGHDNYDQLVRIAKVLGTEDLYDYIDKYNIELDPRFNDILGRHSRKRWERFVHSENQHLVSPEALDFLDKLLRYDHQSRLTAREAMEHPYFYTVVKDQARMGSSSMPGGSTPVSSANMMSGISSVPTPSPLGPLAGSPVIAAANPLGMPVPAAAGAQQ
Chain of INSR (P06213 whole entry): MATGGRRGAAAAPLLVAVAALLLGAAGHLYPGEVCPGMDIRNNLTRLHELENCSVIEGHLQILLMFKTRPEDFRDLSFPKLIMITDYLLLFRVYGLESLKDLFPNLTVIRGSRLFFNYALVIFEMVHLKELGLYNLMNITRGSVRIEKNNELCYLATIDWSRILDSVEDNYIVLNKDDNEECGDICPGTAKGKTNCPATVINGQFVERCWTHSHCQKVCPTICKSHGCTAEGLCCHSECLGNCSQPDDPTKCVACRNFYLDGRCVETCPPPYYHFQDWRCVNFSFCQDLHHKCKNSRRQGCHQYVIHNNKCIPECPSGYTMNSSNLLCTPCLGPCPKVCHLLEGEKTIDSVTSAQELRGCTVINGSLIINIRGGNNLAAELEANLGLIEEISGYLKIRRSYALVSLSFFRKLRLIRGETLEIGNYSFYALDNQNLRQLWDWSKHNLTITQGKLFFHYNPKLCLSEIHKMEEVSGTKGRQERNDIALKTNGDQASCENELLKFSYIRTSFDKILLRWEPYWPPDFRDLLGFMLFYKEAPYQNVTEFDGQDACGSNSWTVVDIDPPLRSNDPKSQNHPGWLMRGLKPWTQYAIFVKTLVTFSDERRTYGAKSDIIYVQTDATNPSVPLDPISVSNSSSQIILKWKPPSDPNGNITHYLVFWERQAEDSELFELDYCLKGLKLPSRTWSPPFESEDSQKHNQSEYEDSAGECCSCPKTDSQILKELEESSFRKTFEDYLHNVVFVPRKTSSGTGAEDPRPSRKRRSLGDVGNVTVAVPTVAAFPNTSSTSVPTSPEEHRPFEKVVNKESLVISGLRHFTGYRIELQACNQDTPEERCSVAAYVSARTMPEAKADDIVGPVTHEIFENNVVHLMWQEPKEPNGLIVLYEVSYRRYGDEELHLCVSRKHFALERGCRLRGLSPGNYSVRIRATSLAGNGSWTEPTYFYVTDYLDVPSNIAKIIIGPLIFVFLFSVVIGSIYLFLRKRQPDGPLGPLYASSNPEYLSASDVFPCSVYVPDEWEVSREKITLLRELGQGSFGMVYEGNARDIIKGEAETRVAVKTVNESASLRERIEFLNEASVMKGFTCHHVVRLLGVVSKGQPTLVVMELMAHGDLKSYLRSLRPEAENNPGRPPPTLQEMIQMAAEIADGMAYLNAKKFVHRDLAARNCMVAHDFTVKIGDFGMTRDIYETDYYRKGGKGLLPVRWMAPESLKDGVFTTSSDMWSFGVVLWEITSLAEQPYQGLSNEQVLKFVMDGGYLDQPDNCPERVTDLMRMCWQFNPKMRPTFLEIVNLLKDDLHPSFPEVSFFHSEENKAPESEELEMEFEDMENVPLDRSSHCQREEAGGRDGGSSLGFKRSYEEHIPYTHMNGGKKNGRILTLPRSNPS

- remaining activity at 1 µM [1]: 82%
- remaining activity at 1 µM [2]: 74%
- remaining activity at 1 µM [3]: 95%
- remaining activity at 1 µM [4]: 100%
- remaining activity at 1 µM (BMPR1A): 93%
- remaining activity at 1 µM (CSNK2A1): 100%
- remaining activity at 1 µM (CSNK2A2): 93%
- remaining activity at 1 µM (DLK): 100%
- remaining activity at 1 µM (EGFR(L747-T751del,Sins)): 97%
- remaining activity at 1 µM (EGFR(L861Q)): 97%
- remaining activity at 1 µM (EPHB1): 72%
- remaining activity at 1 µM (ERBB4): 100%
- remaining activity at 1 µM (FLT3(D835V)): 48%
- remaining activity at 1 µM (FLT3(ITD,D835V)): 23%
- remaining activity at 1 µM (FLT3-autoinhibited): 100%
- remaining activity at 1 µM (FYN): 69%
- remaining activity at 1 µM (GCN2(Kin.Dom.2,S808G)): 100%
- remaining activity at 1 µM (INSR): 100%
- remaining activity at 1 µM (MEK3): 100%
- remaining activity at 1 µM (MEK4): 96%
- remaining activity at 1 µM (MET): 100%
- remaining activity at 1 µM (NEK7): 87%
- remaining activity at 1 µM (PDPK1): 84%
- remaining activity at 1 µM (PIK3CA(C420R)): 97%
- remaining activity at 1 µM (PIM2): 97%
- remaining activity at 1 µM (PIM3): 94%
- remaining activity at 1 µM (PIP5K2B): 81%
- remaining activity at 1 µM (PKAC-beta): 97%
- remaining activity at 1 µM (RET(V804M)): 100%
- remaining activity at 1 µM (RIOK3): 100%
- remaining activity at 1 µM (ROCK1): 100%
- remaining activity at 1 µM (TAK1): 93%
- remaining activity at 1 µM (TEC): 96%
- remaining activity at 1 µM (TGFBR1): 96%
Compound: Cc1cn(-c2cc(NC(=O)c3ccc4c(c3)CN(c3cncnc3)C[C@@H]4C)cc(C(F)(F)F)c2)cn1 [Compound 6j]
